Test results taken from ChEMBL document CHEMBL1201862, “PubChem BioAssay data set” (2004).
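Each compound was tested at five concentrations against cells in 96-well plates for 48 hours. At the GI50, growth is halved.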 Calls of active or inactive are those of the source. Cut-off read from the data, not from the text of the source: active = GI50 up to about 1.1 µM and inactive = higher.

Key:
Assay in all cases: NCI-60 cell line screen, 48 h
A498 = test system: A498
CCRF-CEM = test system: CCRF-CEM
HT-29 = test system: HT-29
IGROV-1 = test system: IGROV-1
K562 = test system: K562
M14 = test system: M14
NCI-H23 = test system: NCI-H23
NCI-H522 = test system: NCI-H522
OVCAR-3 = test system: OVCAR-3
OVCAR-4 = test system: OVCAR-4
OVCAR-8 = test system: OVCAR-8
PC-3 = test system: PC-3
SF-268 = test system: SF-268
SF-295 = test system: SF-295
SN12C = test system: SN12C
SNB-75 = test system: SNB-75
SW-620 = test system: SW-620
TK-10 = test system: TK-10
U-251 = test system: U-251
Malme-3M = test system: Malme-3M

Measured: GI50

C[C@@H]1CC[C@@]2(OC1)O[C@H]1[C@@H](O)[C@H]3[C@@H]4CC[C@H]5C[C@@H](O[C@@H]6O[C@H](CO)[C@H](O[C@@H]7O[C@H](CO)C(O)[C@H](O[C@@H]8OC[C@@H](O)[C@H](O)[C@H]8O)[C@H]7O[C@@H]7O[C@H](CO)[C@H](O)[C@H](O[C@@H]8O[C@H](CO)[C@@H](O)[C@H](O)[C@H]8O)[C@H]7O)[C@H](O)[C@H]6O)[C@H](O)C[C@]5(C)[C@H]4CC[C@]3(C)[C@H]1[C@@H]2C (some centres undefined) [DIGITONIN]
inactive: A498 6.18 µM | CCRF-CEM 2.86 µM | HT-29 3.51 µM | IGROV-1 2.83 µM | K562 3.08 µM | M14 12.4 µM | NCI-H23 2.26 µM | NCI-H522 2.06 µM | OVCAR-3 1.55 µM | OVCAR-4 1.97 µM | OVCAR-8 2.02 µM | PC-3 2.57 µM | SF-268 2.09 µM | SF-295 1.82 µM | SN12C 2.97 µM | SNB-75 2.83 µM | SW-620 5.52 µM | TK-10 2.49 µM | U-251 3.43 µM

O=c1c(C(c2ccc3ccccc3c2)c2c(O)oc3cc(O)ccc3c2=O)c(O)oc2cc(O)ccc12
inactive: A498 > 100 µM | CCRF-CEM 43.2 µM | HT-29 > 100 µM | IGROV-1 > 100 µM | K562 30.5 µM | M14 > 100 µM | NCI-H23 > 100 µM | NCI-H522 50.8 µM | OVCAR-3 80 µM | OVCAR-8 71 µM | PC-3 > 100 µM | SF-268 15.9 µM | SF-295 > 100 µM | SN12C > 100 µM | SNB-75 17.5 µM | SW-620 > 100 µM | TK-10 > 100 µM | U-251 41.5 µM

O=C(/C=C/c1ccc2c(c1)OCO2)NCCc1ccco1
inactive: CCRF-CEM 59.8 µM | HT-29 > 100 µM | IGROV-1 19.5 µM | K562 39.7 µM | M14 45.5 µM | Malme-3M 41.6 µM | NCI-H23 > 100 µM | NCI-H522 37.9 µM | OVCAR-3 34.4 µM | OVCAR-4 > 100 µM | OVCAR-8 > 100 µM | PC-3 50.8 µM | SF-268 > 100 µM | SF-295 54.8 µM | SN12C > 100 µM | SNB-75 > 100 µM | SW-620 > 100 µM | TK-10 65.8 µM | U-251 > 100 µM

CN(C)Cc1cc(/C=C/C(=O)c2ccc(Cl)c(Cl)c2)cc(CN(C)C)c1O
inactive: A498 16.1 µM | CCRF-CEM 5.02 µM | HT-29 10.8 µM | IGROV-1 9.98 µM | K562 25.2 µM | M14 13 µM | Malme-3M 9.59 µM | OVCAR-3 10.3 µM | OVCAR-8 13.6 µM | PC-3 12.4 µM | SF-268 10.8 µM | SF-295 20.2 µM | SN12C 13.5 µM | SNB-75 9.12 µM | SW-620 12.9 µM | TK-10 12.4 µM

CNC(C)C(O)c1ccc2oc3cc(=O)c4ccccc4c-3nc2c1 (centres undefined)
inactive: A498 24 µM | CCRF-CEM 5.52 µM | HT-29 36.3 µM | IGROV-1 31.5 µM | K562 2.72 µM | M14 4.65 µM | Malme-3M 5.64 µM | NCI-H23 4.3 µM | NCI-H522 13.3 µM | OVCAR-3 11.9 µM | OVCAR-4 17.3 µM | OVCAR-8 6.15 µM | PC-3 32.6 µM | SF-268 27.2 µM | SF-295 4.59 µM | SN12C 10.6 µM | SW-620 6.35 µM | TK-10 38.7 µM | U-251 4.34 µM

N=c1c2ccccc2nc2oc3cc([N+](=O)[O-])ccc3n12
inactive: CCRF-CEM > 100 µM | HT-29 > 100 µM | IGROV-1 27.4 µM | K562 > 100 µM | M14 > 100 µM | Malme-3M 25.9 µM | NCI-H23 16.6 µM | NCI-H522 32.2 µM | OVCAR-3 25.7 µM | OVCAR-4 21.3 µM | OVCAR-8 20.9 µM | PC-3 54.2 µM | SF-268 27.4 µM | SF-295 19.3 µM | SN12C 35.6 µM | SNB-75 5.61 µM | SW-620 61.1 µM | TK-10 19.6 µM | U-251 15.5 µM

CCOC(=O)C(NC(=O)c1ccccc1)(Nc1ccc(S(=O)(=O)Nc2cc(C)on2)cc1)C(F)(F)F (centres undefined)
inactive: CCRF-CEM > 100 µM | HT-29 > 100 µM | IGROV-1 > 100 µM | K562 > 100 µM | M14 > 100 µM | Malme-3M > 100 µM | NCI-H23 > 10 µM | NCI-H522 > 100 µM | OVCAR-3 > 100 µM | OVCAR-4 > 10 µM | OVCAR-8 > 100 µM | PC-3 > 100 µM | SF-268 > 100 µM | SF-295 > 100 µM | SN12C > 100 µM | SNB-75 > 100 µM | SW-620 > 100 µM | TK-10 56.1 µM | U-251 > 100 µM

CS(=O)(=O)OCC(CCl)(CCl)CCl
inactive: A498 > 100 µM | CCRF-CEM > 100 µM | HT-29 > 100 µM | K562 > 100 µM | M14 > 100 µM | NCI-H23 > 100 µM | NCI-H522 > 100 µM | OVCAR-3 > 100 µM | OVCAR-4 > 100 µM | OVCAR-8 > 100 µM | PC-3 > 100 µM | SF-268 > 100 µM | SF-295 > 100 µM | SN12C > 100 µM | SNB-75 > 100 µM | SW-620 > 100 µM | TK-10 > 100 µM | U-251 > 100 µM

S=c1[nH]nc(COc2ccc3c(c2)CCCC3)n1/N=C/c1ccc(Cl)cc1
inactive: CCRF-CEM 32.1 µM | IGROV-1 16.4 µM | K562 17.3 µM | M14 18 µM | Malme-3M 17 µM | NCI-H23 19.5 µM | NCI-H522 14.1 µM | OVCAR-3 16 µM | OVCAR-4 18.1 µM | OVCAR-8 16.6 µM | PC-3 14.9 µM | SF-268 17.9 µM | SF-295 17.8 µM | SN12C 22.8 µM | SW-620 17.4 µM | TK-10 20.1 µM | U-251 19.1 µM

CCP(=O)(CC)C(Cl)(Cl)C(=O)NC
inactive: CCRF-CEM > 100 µM | HT-29 > 100 µM | IGROV-1 > 100 µM | K562 > 100 µM | M14 > 100 µM | NCI-H23 > 100 µM | NCI-H522 > 100 µM | OVCAR-3 > 100 µM | OVCAR-4 > 100 µM | OVCAR-8 > 100 µM | PC-3 > 100 µM | SF-295 > 100 µM | SN12C > 100 µM | SNB-75 > 100 µM | SW-620 > 100 µM | TK-10 > 100 µM | U-251 > 100 µM

CC1=C(C(=O)OCCO[N+](=O)[O-])C(c2ccccc2C(F)(F)F)C(C(=O)OC(C)C)=C(C)N1 (centres undefined)
inactive: A498 24.1 µM | CCRF-CEM 27.3 µM | HT-29 14.2 µM | IGROV-1 13.1 µM | K562 3.94 µM | M14 13.1 µM | Malme-3M 18.3 µM | NCI-H23 19.6 µM | NCI-H522 16.9 µM | OVCAR-3 10.5 µM | OVCAR-4 12.7 µM | OVCAR-8 17.7 µM | PC-3 3.36 µM | SF-268 16.3 µM | SF-295 11.8 µM | SN12C 16.8 µM | SW-620 30.1 µM | TK-10 18.1 µM | U-251 14.6 µM

CCOC(=O)/C=C(\N=P(c1ccccc1)(c1ccccc1)c1ccccc1)C(F)(F)C(F)(F)C(F)(F)C(F)(F)C(F)(F)F
active: A498 0.0675 µM
inactive: CCRF-CEM > 100 µM | HT-29 > 100 µM | IGROV-1 > 100 µM | K562 > 100 µM | M14 > 100 µM | Malme-3M > 100 µM | NCI-H23 > 100 µM | OVCAR-3 > 100 µM | OVCAR-4 > 100 µM | PC-3 > 100 µM | SF-268 > 100 µM | SF-295 > 100 µM | SN12C > 100 µM | SNB-75 > 100 µM | SW-620 > 100 µM | TK-10 > 100 µM | U-251 > 100 µM

CCCCN(CCCC)C1=Nc2ccccc2-n2c(nnc2C(=O)OCC)C1
inactive: CCRF-CEM 43.5 µM | HT-29 22 µM | IGROV-1 35.9 µM | K562 16.5 µM | M14 44.3 µM | Malme-3M 24.6 µM | NCI-H23 74.6 µM | NCI-H522 > 100 µM | OVCAR-3 37.2 µM | OVCAR-4 61.8 µM | OVCAR-8 69.3 µM | PC-3 17.4 µM | SF-268 50.9 µM | SF-295 44.7 µM | SN12C 51.1 µM | SNB-75 33.1 µM | SW-620 58.3 µM | TK-10 38.7 µM

CCOC(=O)c1c(N)sc2c1CC(C)CC2 (centres undefined)
inactive: HT-29 22.4 µM | IGROV-1 57.4 µM | K562 39.4 µM | M14 26.8 µM | Malme-3M 38 µM | NCI-H23 63.7 µM | NCI-H522 18.4 µM | OVCAR-3 46.1 µM | OVCAR-4 34.1 µM | OVCAR-8 45.3 µM | PC-3 29.4 µM | SF-268 45.1 µM | SF-295 45 µM | SN12C 44.4 µM | SNB-75 26.5 µM | SW-620 55.6 µM | TK-10 45.6 µM | U-251 42.4 µM

O=C(/N=N/c1ccc(Br)cc1)NNc1ccc(Br)cc1
active: CCRF-CEM 0.132 µM
inactive: A498 44 µM | HT-29 17.4 µM | IGROV-1 22.1 µM | K562 10.5 µM | M14 17.1 µM | Malme-3M 26 µM | NCI-H23 22.5 µM | NCI-H522 16.2 µM | OVCAR-3 16.8 µM | OVCAR-8 29.7 µM | PC-3 15.5 µM | SF-295 28.1 µM | SNB-75 29.4 µM | U-251 17.5 µM
